Patent publication US9526681B2, “Compositions and methods for treating dental caries” (Colgate-Palmolive Company, priority 2012, dated 2016)

Tested on: salivary sediment (oral cavity bacteria)
Assay: Ammonia production by salivary sediment incubated with sucrose (diagnostic ammonia assay kit)
Format: cell-based
Details: 0.1% sucrose, 37 degrees Celsius, 30 minutes; for ammonia production, Mean: mean of three trials
Procedure: In order to investigate the effects of arginine alone, mixtures of arginine and bisabolol and bisabolol alone, on the production of ammonia in the present or oral bacterium the following procedures are carried out. Stimulated whole saliva is collected on ice and centrifuged for 15 minutes at 4000 rpm to obtain a pellet and salivary supernatant. The pellet, which is termed the salivary sediment, contains a representative array of the oral microbes found in the oral cavity. This pellet is washed twice in cold filter sterilized deionized water by centrifugation for 10 minutes at 4000 rpm.
The salivary sediment is then diluted to 50% with cold filter sterilized deionized water. Stock solutions of 1% arginine and 1% sucrose in filter sterilized deionized water are made, and a stock solution of 1% bisabolol in ethanol is also made. Reaction mixtures tested contain 16.7% final concentration salivary sediment, 0.1% final concentration sucrose and 0.0871% final concentration arginine. The control reaction mixture contains only salivary sediment, sucrose and arginine in the salivary supernatant base. The test solutions have a final concentration of 0.05 and 0.1 bisabolol, respectively. The reaction mixtures are then incubated at 37 degrees Celsius for 30 minutes with mild agitation before determining ammonia production. A standard diagnostic ammonia assay kit is used to quantify ammonia produced.
Table 1 (below) describes the results of the procedures described above, wherein the ammonia production is measured in terms of nanomole per milligram (nm/mg).
Column A in Table 1 describes data collected for three trials of L-arginine (Control) reaction mixtures that contain salivary sediment and salivary supernatant with final concentrations of 0.1% sucrose and 0.0871% L-arginine. Column B in Table 1 describes data collected for three trials of 0.05% bisabolol plus arginine reaction mixtures that contain salivary sediment and salivary supernatant with final concentrations of 0.1% sucrose, 0.05% bisabolol and 0.0871% L-arginine. Column C in Table 1 describes data collected for three trials of 0.05% bisabolol reaction mixtures that contain salivary sediment and salivary supernatant with final concentrations of 0.1% sucrose and 0.05% bisabolol. Column D in Table 1 describes data collected for three trials of 0.1% bisabolol plus arginine reaction mixtures that contain salivary sediment and salivary supernatant with final concentrations of 0.1% sucrose, 0.1% Bisabolol and 0.0871% L-arginine. Column E in Table 1 describes data collected for three trials of 0.1% bisabolol reaction mixtures that contain salivary sediment and salivary supernatant with final concentrations of 0.1% sucrose and 0.1% bisabolol.

[1] = 0.0871% L-arginine, no bisabolol, 16.7% salivary sediment
[2] = 0.05% bisabolol (with 0.0871% L-arginine in the combination), salivary sediment
[3] = 0.1% bisabolol (with 0.0871% L-arginine in the combination), salivary sediment

Row | Structure (SMILES) | ammonia production, Trial 1 [1] [nm/mg] | ammonia production, Trial 2 [1] [nm/mg] | ammonia production, Trial 3 [1] [nm/mg] | ammonia production, Mean [1] [nm/mg] | ammonia production, Trial 1 [2] [nm/mg] | ammonia production, Trial 2 [2] [nm/mg] | ammonia production, Trial 3 [2] [nm/mg] | ammonia production, Trial 1 [3] [nm/mg] | ammonia production, Trial 2 [3] [nm/mg] | ammonia production, Trial 3 [3] [nm/mg] | ammonia production, Mean [2] [nm/mg] | ammonia production, Mean [3] [nm/mg]
1 | N=C(N)NCCC[C@H](N)C(=O)O [Arginine, L-arginine, reference compound] | 1532.40 | 1799.88 | 986.31 | 1439.53 |  |  |  |  |  |  |  | 
2 | CC(C)=CCC[C@](C)(O)C1CC=C(C)CC1 (stereo partly drawn) [Bisabolol, bisabolol] |  |  |  |  | 200.61 | 27.86 | 66.87 | 133.74 | 562.81 | 228.47 | 98.45 | 308.34
